Measurements taken from ChEMBL document CHEMBL3045426, “Synthesis, Antiviral and Antibacterial Activities of Isatin Mannich Bases” (Med Chem Res, 2005).
Converted amounts (≈) assume the structure as drawn.

Key:
Proteus vulgaris = experiment: Antimicrobial activity against Proteus vulgaris after 18 to 20 hr by agar dilution method; format: functional
Hepatitis C virus = experiment: Antiviral activity against Hepatitis C virus BM4-5 infected in Huh7 cells assessed as inhibition of viral RNA replication by phosphor screening method; format: functional, Hepacivirus hominis, Huh-7
Vibrio cholerae [1] = experiment: Antimicrobial activity against Vibrio cholerae 0139 after 18 to 20 hr by agar dilution method; format: functional; details: 139
Salmonella typhimurium = experiment: Antimicrobial activity against Salmonella enterica subsp. enterica serovar Typhimurium after 18 to 20 hr by agar dilution method; format: functional
Salmonella paratyphi = experiment: Antimicrobial activity against Salmonella enterica subsp. enterica serovar Paratyphi A after 18 to 20 hr by agar dilution method; format: functional
Escherichia coli [2] = experiment: Antimicrobial activity against Escherichia coli NCTC 10418 after 18 to 20 hr by agar dilution method; format: functional
Vibrio cholerae [3] = experiment: Antimicrobial activity against Vibrio cholerae 01 after 18 to 20 hr by agar dilution method; format: functional; details: 1
Vibrio mimicus = experiment: Antimicrobial activity against Vibrio mimicus after 18 to 20 hr by agar dilution method; format: functional
[4] = system: Human immunodeficiency virus 1; experiment: Antiviral activity against Human immunodeficiency virus 1 IIIB infected MT4 cells assessed as inhibition of virus-induced cytopathicity after 5 days by MTT assay; format: functional, organism-based; details: MT4, 120 h
Staphylococcus aureus = experiment: Antimicrobial activity against Staphylococcus aureus after 18 to 20 hr by agar dilution method; format: functional
Salmonella enteritidis = experiment: Antimicrobial activity against Salmonella enterica subsp. enterica serovar Enteritidis after 18 to 20 hr by agar dilution method; format: functional
Proteus mirabilis = experiment: Antimicrobial activity against Proteus mirabilis after 18 to 20 hr by agar dilution method; format: functional
Enterobacter = experiment: Antimicrobial activity against Enterobacter after 18 to 20 hr by agar dilution method; format: functional
Citrobacter freundii = experiment: Antimicrobial activity against Citrobacter freundii after 18 to 20 hr by agar dilution method; format: functional
[5] = Selectivity index, ratio of CC50 for human MT4 cells to EC50 for HIV1 3B infected in MT4 cells; format: toxicity, cell-based; details: read-out: Ratio CC50/EC50
Shigella boydii = experiment: Antimicrobial activity against Shigella boydii after 18 to 20 hr by agar dilution method; format: functional
[6] = Cytotoxicity against Homo sapiens (human) CEM cells after 5 days by MTT assay; format: cell-based; details: CEM cells (CCRF-CEM)
[7] = system: Human immunodeficiency virus 1; experiment: Antiviral activity against Human immunodeficiency virus 1 IIIB infected CEM cells assessed as inhibition of virus-induced cytopathicity after 6 days by XTT assay; format: functional, organism-based; details: CCRF-CEM, 144 h
[8] = Cytotoxicity against Homo sapiens (human) HuH7 cells assessed as cell growth at 50 ug/ml after 3 days by Neutral red assay; format: cell-based, Huh-7; details: read-out: Activity
Klebsiella pneumoniae [9] = experiment: Antimicrobial activity against Klebsiella pneumoniae after 18 to 20 hr by agar dilution method; format: functional
Shigella sonnei = experiment: Antimicrobial activity against Shigella sonnei after 18 to 20 hr by agar dilution method; format: functional
Morganella morganii = experiment: Antimicrobial activity against Morganella morganii after 18 to 20 hr by agar dilution method; format: functional
[10] = system: Human immunodeficiency virus 1; experiment: Antiviral activity against Human immunodeficiency virus 1 IIIB infected MT4 cells assessed as protection against viral infection after 5 days by MTT assay; format: functional; parameters: concentration or dose not given beside the values
Salmonella typhi = experiment: Antimicrobial activity against Salmonella enterica subsp. enterica serovar Typhi after 18 to 20 hr by agar dilution method; format: functional
Vibrio parahaemolyticus = experiment: Antimicrobial activity against Vibrio parahaemolyticus after 18 to 20 hr by agar dilution method; format: functional
[11] = system: Mycobacterium tuberculosis; experiment: Antimycobacterial activity against Mycobacterium tuberculosis H37Rv ATCC 27294 at 6.25 ug/ml by MABA; format: functional
Priestia megaterium = experiment: Antimicrobial activity against Bacillus megaterium after 18 to 20 hr by agar dilution method; format: functional
Klebsiella pneumoniae [12] = experiment: Antimicrobial activity against Klebsiella pneumoniae subsp. ozaenae after 18 to 20 hr by agar dilution method; format: functional
Plesiomonas = experiment: Antimicrobial activity against Plesiomonas after 18 to 20 hr by agar dilution method; format: functional
Pseudomonas aeruginosa = experiment: Antimicrobial activity against Pseudomonas aeruginosa after 18 to 20 hr by agar dilution method; format: functional
Edwardsiella tarda = experiment: Antimicrobial activity against Edwardsiella tarda after 18 to 20 hr by agar dilution method; format: functional
Vibrio fluvialis = experiment: Antimicrobial activity against Vibrio fluvialis after 18 to 20 hr by agar dilution method; format: functional
[13] = system: Human immunodeficiency virus 1; experiment: Antiviral activity against Human immunodeficiency virus 1 IIIB infected CEM cells assessed as protection against viral infection after 6 days by XTT assay; format: functional, CCRF-CEM; parameters: concentration or dose not given beside the values
[14] = Cytotoxicity against Homo sapiens (human) MT4 cells after 5 days by MTT assay; format: cell-based
Escherichia coli [15] = experiment: Antibacterial activity against Escherichia coli NCTC 10418 infected in po dosed CF mouse compound administered 1 hr prior and 4 hr post infection; format: functional; details: NCTC 10418, po

SMILES: COc1cc(Cc2cnc(/N=C3\C(=O)N(CN4CCCCC4C)c4ccc(Cl)cc43)nc2N)cc(OC)c1OC (configuration not stated)
- MIC (Proteus vulgaris): 625 µg/mL (≈ 1110 µM)
- inhibition (INH) (Hepatitis C virus): 89%
- MIC (Vibrio cholerae [1]): 625 µg/mL (≈ 1110 µM)
- MIC (Salmonella typhimurium): 1250 µg/mL (≈ 2210 µM)
- MIC (Salmonella paratyphi): 625 µg/mL (≈ 1110 µM)
- MIC (Escherichia coli [2]): 625 µg/mL (≈ 1110 µM)
- MIC (Vibrio cholerae [3]): 4.88 µg/mL (≈ 8.64 µM)
- MIC (Vibrio mimicus): 0.61 µg/mL (≈ 1.08 µM)
- EC50 [4]: 32.6 µg/mL (≈ 57.7 µM)
- MIC (Staphylococcus aureus): 312 µg/mL (≈ 553 µM)
- MIC (Salmonella enteritidis): 625 µg/mL (≈ 1110 µM)
- MIC (Proteus mirabilis): 625 µg/mL (≈ 1110 µM)
- MIC (Enterobacter): 625 µg/mL (≈ 1110 µM)
- MIC (Citrobacter freundii): 625 µg/mL (≈ 1110 µM)
- selectivity ratio [5]: 3
- MIC (Shigella boydii): 4.88 µg/mL (≈ 8.64 µM)
- CC50 at 120 h [6]: > 83.8 µg/mL
- EC50 [7]: > 83.8 µg/mL
- viability at 72 h, 50 ug/ml [8]: 112%
- MIC (Klebsiella pneumoniae [9]): 1250 µg/mL (≈ 2210 µM)
- MIC (Shigella sonnei): 1250 µg/mL (≈ 2210 µM)
- MIC (Morganella morganii): 1250 µg/mL (≈ 2210 µM)
- Activity [10]: 62.6%
- MIC (Salmonella typhi): 1250 µg/mL (≈ 2210 µM)
- MIC (Vibrio parahaemolyticus): 1.22 µg/mL (≈ 2.16 µM)
- inhibition at 6.25 µg/mL [11]: 10%
- MIC (Priestia megaterium): 625 µg/mL (≈ 1110 µM)
- MIC (Klebsiella pneumoniae [12]): 1250 µg/mL (≈ 2210 µM)
- MIC (Plesiomonas): 19.5 µg/mL (≈ 34.6 µM)
- MIC (Pseudomonas aeruginosa): 1250 µg/mL (≈ 2210 µM)
- MIC (Edwardsiella tarda): 1250 µg/mL (≈ 2210 µM)
- MIC (Vibrio fluvialis): 1250 µg/mL (≈ 2210 µM)
- Activity [13]: 20.7%
- CC50 at 120 h [14]: 97.3 µg/mL (≈ 172 µM)

SMILES: O=C(O)c1cn(C2CC2)c2cc(N3CCNCC3)c(F)cc2c1=O [CIPROFLOXACIN]
- MIC (Proteus vulgaris): 0.04 µg/mL (≈ 0.121 µM)
- MIC (Vibrio cholerae [1]): 0.04 µg/mL (≈ 0.121 µM)
- MIC (Salmonella typhimurium): 0.04 µg/mL (≈ 0.121 µM)
- MIC (Salmonella paratyphi): 0.04 µg/mL (≈ 0.121 µM)
- MIC (Vibrio cholerae [3]): 0.04 µg/mL (≈ 0.121 µM)
- MIC (Vibrio mimicus): 0.04 µg/mL (≈ 0.121 µM)
- ED50 (Escherichia coli [15]): 1.25 mg/kg
- MIC (Staphylococcus aureus): 0.04 µg/mL (≈ 0.121 µM)
- MIC (Salmonella enteritidis): 0.04 µg/mL (≈ 0.121 µM)
- MIC (Proteus mirabilis): 0.04 µg/mL (≈ 0.121 µM)
- MIC (Enterobacter): 0.04 µg/mL (≈ 0.121 µM)
- MIC (Citrobacter freundii): 0.04 µg/mL (≈ 0.121 µM)
- MIC (Shigella boydii): 0.04 µg/mL (≈ 0.121 µM)
- MIC (Klebsiella pneumoniae [9]): 0.04 µg/mL (≈ 0.121 µM)
- MIC (Shigella sonnei): 0.04 µg/mL (≈ 0.121 µM)
- MIC (Morganella morganii): 0.04 µg/mL (≈ 0.121 µM)
- MIC (Salmonella typhi): 0.04 µg/mL (≈ 0.121 µM)
- MIC (Vibrio parahaemolyticus): 0.04 µg/mL (≈ 0.121 µM)
- MIC (Priestia megaterium): 0.04 µg/mL (≈ 0.121 µM)
- MIC (Klebsiella pneumoniae [12]): 0.15 µg/mL (≈ 0.453 µM)
- MIC (Plesiomonas): 0.04 µg/mL (≈ 0.121 µM)
- MIC (Pseudomonas aeruginosa): 0.15 µg/mL (≈ 0.453 µM)
- MIC (Edwardsiella tarda): 0.04 µg/mL (≈ 0.121 µM)
- MIC (Vibrio fluvialis): 0.04 µg/mL (≈ 0.121 µM)

SMILES: COc1cc(Cc2cnc(/N=C3\C(=O)N(CN4CCN(c5ccc(F)cc5)CC4)c4ccc(Cl)cc43)nc2N)cc(OC)c1OC
- MIC (Proteus vulgaris): 625 µg/mL (≈ 967 µM)
- inhibition (INH) (Hepatitis C virus): 80%
- MIC (Vibrio cholerae [1]): 625 µg/mL (≈ 967 µM)
- MIC (Salmonella typhimurium): 625 µg/mL (≈ 967 µM)
- MIC (Salmonella paratyphi): 312 µg/mL (≈ 484 µM)
- MIC (Escherichia coli [2]): 625 µg/mL (≈ 967 µM)
- MIC (Vibrio cholerae [3]): 4.88 µg/mL (≈ 7.55 µM)
- MIC (Vibrio mimicus): 4.88 µg/mL (≈ 7.55 µM)
- EC50 [4]: 56.1 µg/mL (≈ 86.8 µM)
- MIC (Staphylococcus aureus): 625 µg/mL (≈ 967 µM)
- MIC (Salmonella enteritidis): 625 µg/mL (≈ 967 µM)
- MIC (Proteus mirabilis): 625 µg/mL (≈ 967 µM)
- MIC (Enterobacter): 625 µg/mL (≈ 967 µM)
- MIC (Citrobacter freundii): 625 µg/mL (≈ 967 µM)
- selectivity ratio [5]: 3
- MIC (Shigella boydii): 19.5 µg/mL (≈ 30.2 µM)
- CC50 at 120 h [6]: 71 µg/mL (≈ 110 µM)
- EC50 [7]: > 71 µg/mL
- viability at 72 h, 50 ug/ml [8]: 64%
- MIC (Klebsiella pneumoniae [9]): 1250 µg/mL (≈ 1930 µM)
- MIC (Shigella sonnei): 1250 µg/mL (≈ 1930 µM)
- MIC (Morganella morganii): 625 µg/mL (≈ 967 µM)
- Activity [10]: 59.6%
- MIC (Salmonella typhi): 625 µg/mL (≈ 967 µM)
- MIC (Vibrio parahaemolyticus): 39.1 µg/mL (≈ 60.5 µM)
- inhibition at 6.25 µg/mL [11]: 35%
- MIC (Priestia megaterium): 625 µg/mL (≈ 967 µM)
- MIC (Klebsiella pneumoniae [12]): 625 µg/mL (≈ 967 µM)
- MIC (Plesiomonas): 9.76 µg/mL (≈ 15.1 µM)
- MIC (Pseudomonas aeruginosa): 1250 µg/mL (≈ 1930 µM)
- MIC (Edwardsiella tarda): 625 µg/mL (≈ 967 µM)
- MIC (Vibrio fluvialis): 1250 µg/mL (≈ 1930 µM)
- Activity [13]: 22.98%
- CC50 at 120 h [14]: 65.6 µg/mL (≈ 102 µM)

SMILES: CCn1cc(C(=O)O)c(=O)c2cc(F)c(N3CCNC(C)C3)c(F)c21 (configuration not stated) [LOMEFLOXACIN]
- MIC (Proteus vulgaris): 0.61 µg/mL (≈ 1.74 µM)
- MIC (Vibrio cholerae [1]): 2.44 µg/mL (≈ 6.94 µM)
- MIC (Salmonella typhimurium): 4.88 µg/mL (≈ 13.9 µM)
- MIC (Salmonella paratyphi): 0.61 µg/mL (≈ 1.74 µM)
- MIC (Escherichia coli [2]): 0.61 µg/mL (≈ 1.74 µM)
- MIC (Vibrio cholerae [3]): 0.02 µg/mL (≈ 0.0569 µM)
- MIC (Vibrio mimicus): 1.22 µg/mL (≈ 3.47 µM)
- ED50 (Escherichia coli [15]): 1.87 mg/kg
- MIC (Staphylococcus aureus): 0.61 µg/mL (≈ 1.74 µM)
- MIC (Salmonella enteritidis): 19.5 µg/mL (≈ 55.6 µM)
- MIC (Proteus mirabilis): 2.44 µg/mL (≈ 6.94 µM)
- MIC (Enterobacter): 19.5 µg/mL (≈ 55.6 µM)
- MIC (Citrobacter freundii): 19.5 µg/mL (≈ 55.6 µM)
- MIC (Shigella boydii): 9.77 µg/mL (≈ 27.8 µM)
- MIC (Klebsiella pneumoniae [9]): 2.44 µg/mL (≈ 6.94 µM)
- MIC (Shigella sonnei): 39.1 µg/mL (≈ 111 µM)
- MIC (Morganella morganii): 1.22 µg/mL (≈ 3.47 µM)
- MIC (Salmonella typhi): 9.77 µg/mL (≈ 27.8 µM)
- MIC (Vibrio parahaemolyticus): 39.1 µg/mL (≈ 111 µM)
- MIC (Priestia megaterium): 19.5 µg/mL (≈ 55.6 µM)
- MIC (Klebsiella pneumoniae [12]): 1.22 µg/mL (≈ 3.47 µM)
- MIC (Plesiomonas): 1.22 µg/mL (≈ 3.47 µM)
- MIC (Pseudomonas aeruginosa): 4.88 µg/mL (≈ 13.9 µM)
- MIC (Edwardsiella tarda): 4.88 µg/mL (≈ 13.9 µM)
- MIC (Vibrio fluvialis): 1.22 µg/mL (≈ 3.47 µM)
